Source: publication PMC5504357, “Antifungal Potential of Copper(II), Manganese(II) and Silver(I) 1,10-Phenanthroline Chelates Against Multidrug-Resistant Fungal Species Forming the Candida haemulonii Complex: Impact on the Planktonic and Biofilm Lifestyles” (Frontiers in Microbiology, 2017)

Assays:
[1] = test system: Candida duobushaemulonii; assay: Planktonic growth, broth microdilution (CLSI M27-A3), MIC; format: cell-based; conditions: for GM-MIC: geometric mean of three C. duobushaemulonii isolates; for MIC: planktonic, 48 h, 37°C
Outline: (§1)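 Following CLSI M27-A3, compounds were serially diluted in RPMI 1640 (0.0625-32 mg/L) and incubated with isolates at 37°C for 48 h. Visual reading gave the MIC as the lowest growth-free concentration, and MICs were pooled as a geometric mean over isolates; inocula came from 48 h Sabouraud-dextrose cultures.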

[2] = test system: Candida haemulonii var. vulnera; assay: as above; format: cell-based; conditions: for GM-MIC: geometric mean of three C. haemulonii var. vulnera isolates; for MIC: planktonic, 48 h, 37°C
Outline: as §1

[3] = test system: Candida haemulonii; assay: as above; format: cell-based; conditions: for GM-MIC: geometric mean of three C. haemulonii isolates; for MIC: planktonic, 48 h, 37°C
Outline: as §1

[4] = test system: A549 cells; assay: Mammalian cell toxicity (MTT assay) and selectivity index; format: cell-based, Human; conditions: MTT, 48 h incubation
Outline: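 A549 cells were exposed to compounds (0.0313–512 μg/mL) in DMEM for 48 h at 37 °C, 5% CO2. Viability was measured by MTT (3 h, dark), with formazan dissolved in DMSO and read at 450 nm. CC50 was derived, and SI calculated as A549 CC50 divided by C. haemulonii complex GM-MIC.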

Compound	GM-MIC [1]	MIC ([1]; isolate LIP Ch1)	MIC ([1]; isolate LIP Ch6)	MIC ([1]; isolate LIP Ch8)	GM-MIC [2]	MIC ([2]; isolate LIP Ch5)	MIC ([2]; isolate LIP Ch9)	MIC ([2]; isolate LIP Ch11)	GM-MIC [3]	MIC ([3]; isolate LIP Ch4)	MIC ([3]; isolate LIP Ch7)	MIC ([3]; isolate LIP Ch12)	A549 (CC50) [4]
{[Cu(3,6,9-tdda)(phen)2].3H2O.EtOH}n [compound 7]	2 mg/L	2 mg/L	2 mg/L	2 mg/L	2.52 mg/L	2 mg/L	2 mg/L	4 mg/L	3.17 mg/L	4 mg/L	4 mg/L	2 mg/L	1.06 mg/L
CCO.O=C([O-])COCCOCCOCC(=O)[O-].[Ag+].[Ag+].c1cnc2c(c1)ccc1cccnc12.c1cnc2c(c1)ccc1cccnc12.c1cnc2c(c1)ccc1cccnc12.c1cnc2c(c1)ccc1cccnc12 [compound 16, [Ag2(3,6,9-tdda)(phen)4].EtOH]	1.26 mg/L	2 mg/L	1 mg/L	1 mg/L	0.79 mg/L	1 mg/L	0.5 mg/L	1 mg/L	1 mg/L	1 mg/L	1 mg/L	1 mg/L	2.21 mg/L
